Reference: US20250120961A1, “P53 MODULATORS” (Nested Therapeutics, Inc., priority 2023, published 2025)
pEC50: −log10 of the molar value. Where two headings read alike, the source gives them in different places.

Target: His-tagged p53-Y220C DNA binding domain (Homo sapiens, UniProt P04637, Y220C)
Test: Biochemical p53-Y220C and DNA binding assay (HTRF)
Conditions: read-out: HTRF IP
Outline: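 DBD (aa 94-312, 100 nM) mixed with compound and biotinylated consensus dsDNA (200 nM) in DPBS/20 mM NaCl/0.5% BSA, overnight at 4 °C, then 60 min at 27-29 °C; anti-His Tb/streptavidin-d2 HTRF read. Activation normalized to reference compound (500%) and DMSO (0%); 10-point curve, inflection point reported.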

- pEC50 (bound printed in the heading for the reference compound): > 7.00
- pEC50 (inflection point of 10 points dose titration, 4 parameter curve fit, p53-Y220C DBD 100 nM, biotinylated dsDNA 200 nM, 27 to 29° C.): > 7.00
Compound: CN1CC[C@@H](Nc2cccc3c2cc(-c2noc(CNC(=O)c4cnn(C(C)(C)C)c4)n2)n3CC(F)(F)F)[C@@H](F)C1 [Reference Compound 1, reference compound]
